Key:
[1] = system: St Augustinegrass variety 'Classic'; assay: Turfgrass injury trial on St Augustinegrass variety 'Classic'; type: in vivo
Description: In a trial conducted on St Augustinegrass variety ‘Classic’, trifloxysulfuron (TSS) (Monument 75 WDG) was applied at 28 g ai/ha with and without metcamifen applied at 30, 75 and 150 g ai/ha. Two applications were applied on a 30-day interval (initial treatment and second treatment).

kikuyugrass = assay: Turfgrass injury trial on kikuyugrass; type: in vivo
Description: In a kikuyugrass trial, trifloxysulfuron (TSS) (Monument 75 WDG) was applied solo at 28 g ai/ha and compared to a mixture of TSS and metcamifen (MET). The TSS-MET mixture contains trifloxysulfuron and meticamifen at a ratio of 20 to 75 g. Both Monument and the TSS-MET mixture were applied at 28 g ai/ha TSS.

| Structure (SMILES) | injury at all rating dates ([1]; TSS 28 g ai/ha with metcamifen at 30, 75 and 150 g ai/ha, all rating dates) | trifloxysulfuron safening ([1]; metcamifen 30, 75 and 150 g ai/ha with TSS 28 g ai/ha) | trifloxysulfuron safening (kikuyugrass; TSS-MET mixture at 28 g ai/ha TSS) | injury, 9 DAIT (Initial Treatment) ([1]; TSS 28 g ai/ha, 9 days after the initial application) [%] | injury, 17 DAIT ([1]; TSS 28 g ai/ha, 17 days after the initial application) [%] | injury, 24 DAIT ([1]; TSS 28 g ai/ha, 24 days after the initial application) [%] | injury, 30 DAIT (Second Treatment) ([1]; TSS 28 g ai/ha, 30 days after the initial application) [%] | injury, 41 DAIT ([1]; TSS 28 g ai/ha, two applications, 30-day interval, 41 days after the initial application) [%] | injury, 51 DAIT ([1]; TSS 28 g ai/ha, two applications, 30-day interval, 51 days after the initial application) [%] | injury, 7DAA-2 (kikuyugrass; 28 g ai/ha TSS, 7 days after application 2) [a %] | injury, 14DAA-1 (kikuyugrass; 28 g ai/ha TSS, 14 days after application 1) [a %] | injury, 14 DAA-2 (kikuyugrass; 28 g ai/ha TSS, 14 days after application 2) [a %] | injury, 21 DAA-1 (kikuyugrass; 28 g ai/ha TSS, 21 days after application 1) [a %] | injury, 21 DAA-2 (kikuyugrass; 28 g ai/ha TSS, 21 days after application 2) [a %] | injury, 28 DAA-1 (kikuyugrass; 28 g ai/ha TSS, 28 days after application 1) [a %] | injury, 28 DAA-2 (kikuyugrass; 28 g ai/ha TSS, 28 days after application 2) [a %] | injury (kikuyugrass; trifloxysulfuron solo 28 g ai/ha, two applications on a 28-day interval) [%] |
| --- | --- | --- | --- | --- | --- | --- | --- | --- | --- | --- | --- | --- | --- | --- | --- | --- | --- |
| CNC(=O)Nc1ccc(S(=O)(=O)NC(=O)c2ccccc2OC)cc1 [Metcamifen, 2-Methoxy-N-[[4-[[(methylamino)carbonyl]amino]phenyl]sulfonyl]benzamide] | Less than 5% | almost complete trifloxysulfuron safening | almost complete trifloxysulfuron safening |  |  |  |  |  |  |  |  |  |  |  |  |  |  |
| COc1cc(OC)nc(NC(=O)NS(=O)(=O)c2ncccc2OCC(F)(F)F)n1 [TSS (Monument), N-[[(4,6-dimethoxy-2-pyrimidinyl)amino]carbonyl]-3-(2,2,2-trifluoroethoxy)-2-pyridinesulfonamide] |  |  |  | 71 | 85 | 98 | 85 | 80 | 81 | 40 | 22.5 | 40 | 37.4 | 40 | 34.9 | 32.5 | 40 |
